Assay results published in publication PMC7170901, “Design and efficient synthesis of pyrazoline and isoxazole bridged indole C-glycoside hybrids as potential anticancer agents” (Scientific Reports, 2020).

System: MDA-MB-231 (human breast cancer) cell line
Assay: MTT cell viability assay in MDA-MB-231 cells
Assay type: cell-based
Conditions: for Cell Viability (%) ± SD / viability at 10 µM / viability at 25 µM / viability at 50 µM: 72 h, MTT; for viability at 10 µM / viability at 25 µM / viability at 50 µM: MDA-MB-231, 72 h
Procedure: IC50 values were determined by plotting values of percent cell viability against concentration of each of these compounds. […] The experiments were performed in triplicates, n = 3 and ± SE value was calculated for each data point.
The human breast cancer cell line MDA-MB-231 were cultured in Dulbecco’s Modified Eagle’s Medium (DMEM) (Gibco, St. Louis, USA) supplemented with 10% heat inactivated FBS (Fetal Bovine Serum, Gibco, USA) and 1% penicillin-streptomycin (Gibco Canada) in humidified CO2 incubator at 37 °C. The cells were maintained as a monolayer in 100 mm culture plate. The cells used for each experiment were of less than 8 passage number. Sub culturing of cells was performed every third day, followed by trypsin EDTA treatment.
Cell viability assay was performed as per standard protocols. […] Ltd, India). In brief, this is a homogeneous, colorimetric method for determining the number of viable cells in proliferation, cytotoxicity or chemosensitivity assays. MTT is bio reduced by cells into a formazan product that is soluble in the tissue culture medium. […] The absorbance of the formazan product at 595 nm was measured directly from 96-well assay plates without additional processing using a multimode plate reader (Bio-Rad) (iMark, India), as absorbance is directly proportional to the number of viable cells in culture. The percentage of viable cells in each group is determined with respect to the untreated control cells.

[1] = Homo sapiens, MDA-MB-231, 10 µM, read-out: Cell Viability (%) ± SD
[2] = Homo sapiens, MDA-MB-231, 25 µM, read-out: Cell Viability (%) ± SD
[3] = Homo sapiens, MDA-MB-231, 50 µM, read-out: Cell Viability (%) ± SD

Molecule	viability at 10 µM [1]	viability at 25 µM [2]	viability at 50 µM [3]	further results
O=C(/C=C/c1c[nH]c2ccc([N+](=O)[O-])cc12)C[C@@H]1O[C@H](CO)[C@@H](O)[C@H](O)[C@H]1O [Compound 10, (E)-4-(5-nitro-1H-indol-3-yl)-1-((2S,3R,4R,5S,6R)-3,4,5-trihydroxy-6-(hydroxymethyl)tetrahydro-2H-pyran-2-yl)but-3-en-2-one]	–	–	–	Cell Viability (%) ± SD (MDA-MB-231, 10 µM, 10 µM): 91.40 ± 10.38%; Cell Viability (%) ± SD (MDA-MB-231, 25 µM, 25 µM): 84.49 ± 6.74%; Cell Viability (%) ± SD (MDA-MB-231, 50 µM, 50 µM): 85.37 ± 14.16%
O=[N+]([O-])c1ccc2[nH]cc(C3CC(C[C@@H]4O[C@H](CO)[C@@H](O)[C@H](O)[C@@H]4O)=NN3)c2c1 (stereo partly shown) [Compound 30, (2 S,3 S,4 R,5 S,6 R)-2-((5-(5-nitro-1H-indol-3-yl)-4,5-dihydro-1H-pyrazol-3-yl)methyl)-6-(hydroxymethyl)tetrahydro-2H-pyran-3,4,5-triol]	93.8 ± 5.85%	92.1 ± 8%	88 ± 1.1%	–
O=C(/C=C/c1c[nH]c2ccc(Cl)cc12)C[C@@H]1O[C@H](CO)[C@H](O)[C@H](O)[C@H]1O [Compound 16, (E)-4-(5-chloro-1H-indol-3-yl)-1-((2S,3R,4R,5R,6R)-3,4,5-trihydroxy-6-(hydroxylmethyl)tetrahydro-2H-pyran-2-yl)but-3-en-2-one]	75 ± 14.3%	89.6 ± 12.9%	56.7 ± 17.8%	–
CC1=CC(=O)c2ccccc2C1=O [Menadione, menadione, reference compound]	–	–	–	viability at 20 µM (Homo sapiens, MDA-MB-231, MDA-MB-231, positive control at 20 µM, read-out: Cell Viability (%) ± SD): 20.8 ± 8.7%
OC[C@H]1O[C@@H](CC2=NNC(c3c[nH]c4ccc(Cl)cc34)C2)[C@H](O)[C@@H](O)[C@H]1O (stereo partly shown) [Compound 28, (2 S,3 R,4 R,5 R,6 R)-2-((5-(5-chloro-1H-indol-3-yl)-4,5-dihydro-1H-pyrazol-3-yl)methyl)-6-(hydroxymethyl)tetrahydro-2H-pyran-3,4,5-triol]	99.5 ± 10.2%	95.2 ± 13.6%	63.4 ± 17.5%	–
OC[C@H]1O[C@@H](Cc2cc(-c3c[nH]c4ccc(Br)cc34)on2)[C@H](O)[C@@H](O)[C@@H]1O [Compound 35, (2 S,3 R,4 R,5 S,6 R)-2-((5-(5-bromo-1H-indol-3-yl)isoxazol-3-yl)methyl)-6-(hydroxy-methyl)tetrahydro-2H-pyran-3,4,5-triol]	95.5 ± 4.91%	95.3 ± 3.6%	93.9 ± 9.08%	–
O=C(/C=C/c1c[nH]c2ccccc12)C[C@@H]1O[C@H](CO)[C@H](O)[C@H](O)[C@H]1O [Compound 13, (E)-4-(1H-indol-3-yl)-1-((2S,3R,4R,5R,6R)-3,4,5-trihydroxy-6-(hydroxymethyl)tetrahydro-2H-pyran-2-yl)but-3-en-2-one]	97.6 ± 2.25%	94.2 ± 1.96%	84.2 ± 9.22%	–
OC[C@H]1O[C@@H](Cc2cc(-c3c[nH]c4ccc(Cl)cc34)on2)[C@H](O)[C@@H](O)[C@@H]1O [Compound 36, (2 S,3 R,4 R,5 S,6 R)-2-((5-(5-chloro-1H-indol-3-yl)isoxazol-3-yl)methyl)-6-(hydroxymethyl) tetrahydro-2H-pyran-3,4,5-triol]	97.8 ± 11.6%	96.8 ± 11.6%	99.3 ± 4.28%	–
O=C(/C=C/c1c[nH]c2ccc(Cl)cc12)C[C@@H]1O[C@H](CO)[C@@H](O)[C@H](O)[C@H]1O [Compound 12, (E)-4-(5-chloro-1H-indol-3-yl)-1-((2S,3R,4R,5S,6R)-3,4,5-trihydroxy-6-(hydroxymethyl)tetrahydro-2H-pyran-2-yl)but-3-en-2-one]	79.2 ± 8.51%	89.8 ± 8.75%	74.8 ± 7.02%	–
O=C(/C=C/c1c[nH]c2ccc(Br)cc12)C[C@@H]1O[C@H](CO)[C@@H](O)[C@H](O)[C@H]1O [Compound 11, (E)-4-(5-bromo-1H-indol-3-yl)-1-((2S,3R,4R,5S,6R)-3,4,5-trihydroxy-6-(hydroxymethyl)tetrahydro-2H-pyran-2-yl)but-3-en-2-one]	100 ± 23%	100 ± 8.93%	108 ± 2.89%	–
(E)-4-(1H-indol-3-yl)-1-((2S,3S,4R,5S,6R)-3,4,5-trihydroxy-6-(hydroxymethyl) tetrahydro-2H-pyran-2-yl) but-3-en-2-one [Compound 19]	–	–	–	Cell Viability (%) ± SD (MDA-MB-231, 10 µM): 102.51 ± 10.39%; Cell Viability (%) ± SD (MDA-MB-231, 25 µM): 89.20 ± 28.63%; Cell Viability (%) ± SD (MDA-MB-231, 50 µM): 71.48 ± 6.24%
OC[C@H]1O[C@@H](Cc2cc(-c3c[nH]c4ccc(Br)cc34)on2)[C@@H](O)[C@@H](O)[C@@H]1O [Compound 43, (2 S,3 S,4 R,5 S,6 R)-2-((5-(5-bromo-1H-indol-3-yl)isoxazol-3-yl)methyl)-6-(hydroxymethyl) tetrahydro-2H-pyran-3,4,5-triol]	96.6 ± 3.98%	85.2 ± 2.93%	95.7 ± 3.26%	–
OC[C@H]1O[C@@H](Cc2cc(-c3c[nH]c4ccccc34)on2)[C@@H](O)[C@@H](O)[C@@H]1O [Compound 41, (2 S,3 S,4 R,5 S,6 R)-2-((5-(1H-indol-3-yl)isoxazol-3-yl)methyl)-6-(hydroxymethyl) tetrahydro-2H-pyran-3,4,5-triol]	89.2 ± 3.7%	81.2 ± 5.17%	74 ± 17.6%	–
OC[C@H]1O[C@@H](CC2=NNC(c3c[nH]c4ccc(Br)cc34)C2)[C@@H](O)[C@@H](O)[C@@H]1O (stereo partly shown) [Compound 31, (2 S,3 S,4 R,5 S,6 R)-2-((5-(5-bromo-1H-indol-3-yl)-4,5-dihydro-1H-pyrazol-3-yl)methyl)-6-(hydroxymethyl)tetrahydro-2H-pyran-3,4,5-triol]	91.4 ± 3.62%	90.1 ± 6.77%	87.6 ± 6.27%	–
OC[C@H]1O[C@@H](Cc2cc(-c3c[nH]c4ccc(Br)cc34)on2)[C@H](O)[C@@H](O)[C@H]1O [Compound 39, (2 S,3 R,4 R,5 R,6 R)-2-((5-(5-bromo-1H-indol-3-yl)isoxazol-3-yl)methyl)-6-(hydroxymethyl) tetrahydro-2H-pyran-3,4,5-triol]	120 ± 17.6%	89.4 ± 5.32%	90.3 ± 2.88%	–
O=[N+]([O-])c1ccc2[nH]cc(C3CC(C[C@@H]4O[C@H](CO)[C@@H](O)[C@H](O)[C@H]4O)=NN3)c2c1 (stereo partly drawn) [Compound 22, (2R,3S,4R,5R,6S)-2-(hydroxymethyl)-6-((5-(5-nitro-1H-indol-3-yl)-4,5-dihydro-1H-pyrazol-3-yl)methyl)tetrahydro-2H-pyran-3,4,5-triol]	70.4 ± 13%	68.6 ± 11.1%	70.3 ± 6.17%	–
OC[C@H]1O[C@@H](Cc2cc(-c3c[nH]c4ccccc34)on2)[C@H](O)[C@@H](O)[C@@H]1O [Compound 33, (2 S,3 R,4 R,5 S,6 R)-2-((5-(1H-indol-3-yl)isoxazol-3-yl)methyl)-6-(hydroxymethyl) tetrahydro-2H-pyran-3,4,5-triol]	104 ± 12.7%	106 ± 7.4%	92.6 ± 15.2%	–
OC[C@H]1O[C@@H](CC2=NNC(c3c[nH]c4ccccc34)C2)[C@@H](O)[C@@H](O)[C@@H]1O (stereo partly shown) [Compound 29, (2 S,3 S,4 R,5 S,6 R)-2-((5-(1H-indol-3-yl)-4,5-dihydro-1H-pyrazol-3-yl)methyl)-6-(hydroxy-methyl)tetrahydro-2H-pyran-3,4,5-triol]	82.2 ± 7.65%	76.6 ± 6.58%	73.5 ± 8.45%	–
O=C(/C=C/c1c[nH]c2ccccc12)C[C@@H]1O[C@H](CO)[C@@H](O)[C@H](O)[C@@H]1O [Compound 17, (E)-4-(1H-indol-3-yl)-1-((2S,3S,4R,5S,6R)-3,4,5-trihydroxy-6-(hydroxymethyl)tetrahydro-2H-pyran-2-yl)but-3-en-2-one]	84.1 ± 4.09%	80.5 ± 2.58%	79.4 ± 10.4%	–
O=[N+]([O-])c1ccc2[nH]cc(C3CC(C[C@@H]4O[C@H](CO)[C@H](O)[C@H](O)[C@H]4O)=NN3)c2c1 (stereo partly shown) [Compound 26, (2 S,3 R,4 R,5 R,6 R)-2-((5-(5-nitro-1H-indol-3-yl)-4,5-dihydro-1H-pyrazol-3-yl)methyl)-6-(hydroxymethyl)tetrahydro-2H-pyran-3,4,5-triol]	101 ± 9.67%	98.25 ± 0.34%	99.5 ± 1.88%	–
O=[N+]([O-])c1ccc2[nH]cc(-c3cc(C[C@@H]4O[C@H](CO)[C@@H](O)[C@H](O)[C@@H]4O)no3)c2c1 [Compound 42, (2 R,3 S,4 R,5 S,6 S)-2-(hydroxymethyl)-6-((5-(5-nitro-1H-indol-3-yl)isoxazol-3-yl)methyl) tetrahydro-2H-pyran-3,4,5-triol]	92.6 ± 11.5%	93.4 ± 15.7%	95.2 ± 13.6%	–
